Values after ≈ are worked out from the molar mass of the structure shown. Read-outs that look alike come from different tables or passages of the source.
How the values were obtained:
Assay in all cases: Minimum inhibitory concentration (MIC) by agar dilution
Type in all cases: cell-based
[1] = system: Enterobacter cloacae; details: 20 h, read-out: MINIMUM INHIBITORY CONCENTRATION
Description: (§1) Briefly, MIC values are determined in unsupplemented Mueller Hinton Agar (MHA). The compounds tested are diluted serially into molten MHA at 47° C. The agar is poured into petri dishes and allowed to harden. The various bacteria used for testing are grown overnight on MHA at 35° C. and transferred to Trypticase soy broth (TSB) until a turbidity of 0.5 McFarland standard is obtained. The bacteria are diluted one to 20 in TSB and inoculated on the plates (1 μl using a Steers replicator).
as §1, with “Compounds of this invention can also be tested for in vitro antimicrobial activity using standard testing procedures such as the determination of minimum inhibitory concentration (MIC) by agar dilution as described in "Methods for Dilution Antimicrobial Susceptibility Tests for Bacteria That Grow Aerobically" (MFT) published Jan. […] Briefly,” for “Briefly,”, “(1μl” for “(1 μl”

[2] = system: Acinetobacter calcoaceticus; details: Acinetobacter calcoaceticus, 20 h, read-out: MINIMUM INHIBITORY CONCENTRATION, Cult No. 12170, MHA
Description: as §1, with “The antibacterial activity of the compounds of Formula IC was determined by using standard testing procedures such as the determination of minimum inhibitory concentration (MIC) by agar dilution as described in "Methods for Dilution Antimicrobial Susceptibility Tests for Bacteria That Grow Aerobically" (MFT) published January 1983 by the National Committee for Clinical Laboratory Standards, 771 East Lancaster Avenue, Villanova, Pa. 19084, USA. Briefly,” for “Briefly,”
(§2) Compounds of this invention can also be tested for in vitro antimicrobial activity using standard testing procedures such as the determination of minimum inhibitory concentration (MIC) by agar dilution as described in "Methods for Dilution Antimicrobial Susceptibility Tests for Bacteria That Grow Aerobically" (MFT) published Jan. 1983 by the National Committee for Clinical Laboratory Standards, 771 East Lancaster Avenue, Villanova, Penna. 19084, USA. Briefly, MIC values are determined in unsupplemented Mueller Hinton Agar (MHA). The compounds tested are diluted serially into molten MHA at 47° C. The agar is poured into petri dishes and allowed to harden. The various bacteria used for testing are grown overnight on MHA at 35° C. and transferred to Trypticase soy broth (TSB) until a turbidity of 0.5 McFarland standard is obtained. The bacteria are diluted one to 20 in TSB and inoculated on the plates (1μl using a Steers replicator). […] The MIC test results of selected of Formula B compounds of this invention are found in Tables B2-B9.

[3] = system: Citerobacter freundii; details: 20 h, read-out: MINIMUM INHIBITORY CONCENTRATION
Description: (§3) The antibacterial activity of the compounds of Formula IC was determined by using standard testing procedures such as the determination of minimum inhibitory concentration (MIC) by agar dilution as described in "Methods for Dilution Antimicrobial Susceptibility Tests for Bacteria That Grow Aerobically" (MFT) published January 1983 by the National Committee for Clinical Laboratory Standards, 771 East Lancaster Avenue, Villanova, Pa. 19084, USA. Briefly, MIC values are determined in unsupplemented Mueller Hinton Agar (MHA). The compounds tested are diluted serially into molten MHA at 47° C. The agar is poured into petri dishes and allowed to harden. The various bacteria used for testing are grown overnight on MHA at 35° C. and transferred to Trypticase soy broth (TSB) until a turbidity of 0.5 McFarland standard is obtained. The bacteria are diluted one to 20 in TSB and inoculated on the plates (1 μl using a Steers replicator).
as §2

[4] = system: Escherichia coli; details: Escherichia coli, 20 h
Description: as §3, §2

[5] = system: Klebsiella pneumoniae; details: 20 h, read-out: MINIMUM INHIBITORY CONCENTRATION
Description: as §3, §2

[6] = system: Proteus penneri; details: Proteus penneri, 20 h, read-out: MINIMUM INHIBITORY CONCENTRATION, Cult No. 9679, MHA
Description: as §3, §2

[7] = system: Pseudomonas aeruginosa; details: Pseudomonas aeruginosa, 20 h
Description: as §3, §2

[8] = system: Serratia marcescens; details: 20 h, read-out: MINIMUM INHIBITORY CONCENTRATION
Description: as §3, §2

[9] = system: Staphylococcus aureus; details: Staphylococcus aureus, 20 h
Description: as §3, §2

[10] = system: Staphylococcus epidermidis; details: 20 h, read-out: MINIMUM INHIBITORY CONCENTRATION
Description: as §3, §2

[11] = system: Streptococcus faecalis; details: Enterococcus faecalis, 20 h, read-out: MINIMUM INHIBITORY CONCENTRATION
Description: as §3, §2

[12] = system: Streptococcus pneumoniae; details: Streptococcus pneumoniae, 20 h, read-out: MINIMUM INHIBITORY CONCENTRATION, Cult No. 41, MHA
Description: as §3, §2

[13] = system: Streptococcus pyogenes; details: Streptococcus pyogenes, 20 h, read-out: MINIMUM INHIBITORY CONCENTRATION, Cult No. 152, MHA
Description: as §3, §2

[14] = read-out: MINIMUM INHIBITORY CONCENTRATION, Cult No. 6674, MHA
[15] = read-out: MINIMUM INHIBITORY CONCENTRATION, Cult No. 9451, MHA
[16] = read-out: MINIMUM INHIBITORY CONCENTRATION, Cult No. 9855, MHA
[17] = read-out: MINIMUM INHIBITORY CONCENTRATION, Cult No. 9952, MHA
[18] = read-out: MINIMUM INHIBITORY CONCENTRATION, Cult No. 6676, MHA
[19] = read-out: MINIMUM INHIBITORY CONCENTRATION, Cult No. 9191, MHA
[20] = read-out: MINIMUM INHIBITORY CONCENTRATION, Cult No. 12120, MHA
[21] = read-out: MINIMUM INHIBITORY CONCENTRATION, Cult No. 6685, MHA
[22] = read-out: MINIMUM INHIBITORY CONCENTRATION, Cult No. 9213, MHA
[23] = read-out: MINIMUM INHIBITORY CONCENTRATION, Cult No. 9218, MHA
[24] = read-out: MINIMUM INHIBITORY CONCENTRATION, Cult No. 9271, MHA

Compound | MIC [1] [mg/L] | MIC [2] [mg/L] | MIC [3] [mg/L] | MIC [4, 14] [mg/L] | MIC [4, 15] [mg/L] | MIC [4, 16] [mg/L] | MIC [4, 17] [mg/L] | MIC [5] [mg/L] | MIC [6] [mg/L] | MIC [7, 18] [mg/L] | MIC [7, 19] [mg/L] | MIC [7, 20] [mg/L] | MIC [8] [mg/L] | MIC [9, 21] [mg/L] | MIC [9, 22] [mg/L] | MIC [9, 23] [mg/L] | MIC [9, 24] [mg/L] | MIC [10] [mg/L] | MIC [11] [mg/L] | MIC [12] [mg/L] | further results
O=C(O)c1cn(C23CC(C2)C3)c2c(F)c(N3CCNCC3)c(F)cc2c1=O [No. 1, 1-(bicyclo[1.1.1]pent-1-yl)-6,8-difluoro-1,4-dihydro-4-oxo-7-(1-piperazinyl)-3-quinolinecarboxylic acid] | 0.06 (≈ 0.16 µM) | 0.25 (≈ 0.666 µM) | 0.06 (≈ 0.16 µM) | 0.06 (≈ 0.16 µM) | 0.06 (≈ 0.16 µM) | 0.06 (≈ 0.16 µM) | 0.06 (≈ 0.16 µM) | 0.125 (≈ 0.333 µM) | 0.5 (≈ 1.33 µM) | 2 (≈ 5.33 µM) | 1 (≈ 2.66 µM) | 1 (≈ 2.66 µM) | 0.25 (≈ 0.666 µM) | 0.5 (≈ 1.33 µM) | 1 (≈ 2.66 µM) | 0.5 (≈ 1.33 µM) | 0.5 (≈ 1.33 µM) | 0.25 (≈ 0.666 µM) | 2 (≈ 5.33 µM) | 2 (≈ 5.33 µM) | MIC ([9]; read-out: MINIMUM INHIBITORY CONCENTRATION, Cult No. 3665, MHA): 0.5 mg/L (≈ 1.33 µM); MIC [13]: 2 mg/L (≈ 5.33 µM)
O=C(O)c1cn(C23CC(C2)C3)c2cc(N3CCNCC3)c(F)cc2c1=O [No. 2, 1-(bicyclo[1.1.1]pent-1-yl)-1,4-dihydro-6-fluoro-4-oxo-7-(1-piperazinyl)-3-quinolinecarboxylic acid] | 0.125 (≈ 0.35 µM) | 0.5 (≈ 1.4 µM) | 0.06 (≈ 0.168 µM) | 0.125 (≈ 0.35 µM) | 0.125 (≈ 0.35 µM) | 0.125 (≈ 0.35 µM) | 0.125 (≈ 0.35 µM) | 0.25 (≈ 0.7 µM) | 0.5 (≈ 1.4 µM) | 4 (≈ 11.2 µM) | 2 (≈ 5.6 µM) | 1 (≈ 2.8 µM) | 0.5 (≈ 1.4 µM) | 0.5 (≈ 1.4 µM) | 1 (≈ 2.8 µM) | 1 (≈ 2.8 µM) | 1 (≈ 2.8 µM) | 0.5 (≈ 1.4 µM) | 4 (≈ 11.2 µM) | 4 (≈ 11.2 µM) | MIC [13]: 2 mg/L (≈ 5.6 µM)
O=C(O)c1cn(C23CC(C2)C3)c2c(F)c(N3CCC(O)C3)c(F)cc2c1=O (stereo not shown) [No. 3, 7-(3-hydroxy-1-pyrrolidinyl)-1-(bicyclo[1.1.1]pent-1-yl)-1,4-dihydro-6,8-difluoro-4-oxo-3-quinolinecarboxylic acid] | 0.25 (≈ 0.664 µM) | 0.25 (≈ 0.664 µM) | 0.25 (≈ 0.664 µM) | 0.25 (≈ 0.664 µM) | 0.25 (≈ 0.664 µM) | 0.25 (≈ 0.664 µM) | 0.125 (≈ 0.332 µM) | 0.5 (≈ 1.33 µM) | 0.5 (≈ 1.33 µM) | 2 (≈ 5.31 µM) | 2 (≈ 5.31 µM) | 1 (≈ 2.66 µM) | 1 (≈ 2.66 µM) | 0.06 (≈ 0.159 µM) | 0.125 (≈ 0.332 µM) | 0.125 (≈ 0.332 µM) | 0.125 (≈ 0.332 µM) | 0.125 (≈ 0.332 µM) | 1 (≈ 2.66 µM) | 1 (≈ 2.66 µM) | MIC [13]: 2 mg/L (≈ 5.31 µM)
O=C(O)c1cn(C23CC(C2)C3)c2nc(N3CCNCC3)c(F)cc2c1=O [No. 4, 7-(1-piperazinyl)-1-(bicyclo[1.1.1]pent-1-yl)-1,4-dihydro-6-fluoro-4-oxo-1,8-naphthyridine-3-carboxylic acid] | 0.06 (≈ 0.167 µM) | 0.25 (≈ 0.698 µM) | 0.06 (≈ 0.167 µM) | 0.06 (≈ 0.167 µM) | 0.06 (≈ 0.167 µM) | 0.06 (≈ 0.167 µM) | 0.06 (≈ 0.167 µM) | 0.125 (≈ 0.349 µM) | 0.5 (≈ 1.4 µM) | 2 (≈ 5.58 µM) | 1 (≈ 2.79 µM) | 0.5 (≈ 1.4 µM) | 0.25 (≈ 0.698 µM) | 0.25 (≈ 0.698 µM) | 0.5 (≈ 1.4 µM) | 0.5 (≈ 1.4 µM) | 0.5 (≈ 1.4 µM) | 0.25 (≈ 0.698 µM) | 2 (≈ 5.58 µM) | 2 (≈ 5.58 µM) | MIC [13]: 2 mg/L (≈ 5.58 µM)
CN1CCN(c2c(F)cc3c(=O)c(C(=O)O)cn(C45CC(C4)C5)c3c2F)CC1 [No. 99, 7-(4-methyl-1-piperazinyl)-1-(bicyclo[1.1.1]pent-1-yl)-1,4-dihydro-6,8-difluoro-4-oxo-3-quinolinecarboxylic acid] | 0.25 (≈ 0.642 µM) | 0.125 (≈ 0.321 µM) | 0.25 (≈ 0.642 µM) | 0.25 (≈ 0.642 µM) | 0.255 (≈ 0.655 µM) | 0.25 (≈ 0.642 µM) | 0.125 (≈ 0.321 µM) | 0.5 (≈ 1.28 µM) | 2 (≈ 5.14 µM) | 4 (≈ 10.3 µM) | 4 (≈ 10.3 µM) | 2 (≈ 5.14 µM) | 1 (≈ 2.57 µM) | 0.5 (≈ 1.28 µM) | 0.5 (≈ 1.28 µM) | 0.5 (≈ 1.28 µM) | 0.5 (≈ 1.28 µM) | 0.5 (≈ 1.28 µM) | 4 (≈ 10.3 µM) | 2 (≈ 5.14 µM) | MIC [13]: 2 mg/L (≈ 5.14 µM)

Reference: US5262417A, “Antibacterial quinolone compounds” (The Upjohn Company, priority 1991, dated 1993)
